{"source": "patent US10370378B2", "about": "“Treatment of sleep disorders” (Evotec International GmbH, priority 2007, dated 2019)", "key": {"[1]": {"molecular_target": "T1, α1β2γ2 GABAA receptors (Rattus norvegicus, UniProt P18508+P62813)", "T1 construct": "expressed in transfected cells; host or cells: Xenopus laevis oocytes, cRNA microinjection", "T1 sequence (P62813 28-455)": "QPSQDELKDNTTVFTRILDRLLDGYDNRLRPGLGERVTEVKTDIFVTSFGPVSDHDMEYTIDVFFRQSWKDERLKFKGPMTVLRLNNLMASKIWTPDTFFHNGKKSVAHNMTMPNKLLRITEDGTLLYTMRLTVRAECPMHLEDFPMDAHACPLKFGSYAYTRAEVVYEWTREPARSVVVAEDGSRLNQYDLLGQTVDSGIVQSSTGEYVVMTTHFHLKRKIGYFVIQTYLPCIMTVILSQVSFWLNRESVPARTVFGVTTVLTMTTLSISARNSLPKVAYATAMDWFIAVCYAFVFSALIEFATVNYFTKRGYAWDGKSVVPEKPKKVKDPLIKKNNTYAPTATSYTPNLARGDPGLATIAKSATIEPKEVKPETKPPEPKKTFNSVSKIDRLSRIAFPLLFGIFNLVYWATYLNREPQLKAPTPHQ", "T1 sequence (P63138 25-474 partner limits assumed)": "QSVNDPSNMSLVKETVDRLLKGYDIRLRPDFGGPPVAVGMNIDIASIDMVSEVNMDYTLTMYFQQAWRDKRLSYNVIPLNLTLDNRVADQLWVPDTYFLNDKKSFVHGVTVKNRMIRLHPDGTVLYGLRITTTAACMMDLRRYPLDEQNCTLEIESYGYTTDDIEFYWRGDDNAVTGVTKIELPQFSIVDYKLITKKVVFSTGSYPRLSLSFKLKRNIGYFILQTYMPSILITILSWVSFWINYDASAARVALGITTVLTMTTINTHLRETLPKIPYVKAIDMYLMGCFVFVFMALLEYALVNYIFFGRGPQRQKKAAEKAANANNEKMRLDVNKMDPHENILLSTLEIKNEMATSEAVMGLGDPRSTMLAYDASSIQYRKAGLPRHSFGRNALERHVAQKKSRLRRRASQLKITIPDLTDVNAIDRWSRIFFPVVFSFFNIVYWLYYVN", "T1 sequence (P18508 39-466)": "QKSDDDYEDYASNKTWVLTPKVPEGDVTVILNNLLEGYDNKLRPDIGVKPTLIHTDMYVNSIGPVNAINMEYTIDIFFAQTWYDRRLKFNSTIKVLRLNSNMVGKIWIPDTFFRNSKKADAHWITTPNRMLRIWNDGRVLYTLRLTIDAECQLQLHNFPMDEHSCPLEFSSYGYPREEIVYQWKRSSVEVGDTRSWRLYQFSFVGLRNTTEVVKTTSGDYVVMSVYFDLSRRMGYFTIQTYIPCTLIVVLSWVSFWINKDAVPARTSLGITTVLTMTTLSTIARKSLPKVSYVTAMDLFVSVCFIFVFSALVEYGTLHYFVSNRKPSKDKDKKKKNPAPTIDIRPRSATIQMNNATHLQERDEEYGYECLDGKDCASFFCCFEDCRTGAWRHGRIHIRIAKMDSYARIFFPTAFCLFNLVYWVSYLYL", "experiment": "Stimulation of currents elicited by GABA (EC3-5), two-electrode voltage clamp, receptors expressed in Xenopus oocytes", "format": "cell-based", "description": "7-Chloro-3-(5-dimethylaminomethyl-[1,2,4]oxadiazol-3-yl)-5-methyl-4,5-dihydro-imidazol[1,5,-a][1,4]benzodiazepine-6-one was used to test the effects of the compound of formula (II): […]\nSimilar procedures were chosen as for the investigation of other GABAA receptor subunit specific substances (e.g., Baur et al., 2005; Mol. Pharmacol. 68, 787-792).\nLobes of the ovary containing the follicles were obtained by surgical procedures from female Xenopus laevis. Follicles were singled out using a platinum loop. Fifty nL of cRNA solution at a ratio of αx:β2:γ2 of 1:1:5 (3.3-10 nM αx (x=1, 2, 3, 5); 3.3-10 nM β2; 16.7-50 nM γ2) (Boileau et al., 2002; Neuropharmacology 43, 695-700) were microinjected into Xenopus follicles. Several hours after microinjection the follicles were freed of follicular layers and adhering connective tissue by a collagenase/hypertonic shock procedure (Sigel, 1987; J. Physiol. (Land) 386, 73-90). Oocytes were kept at constant 18° C. until measurement (1-4 days) in a modified Barth solution (88 mM NaCl, 1 mM KCl, 2.4 mM NaHCO3, 10 mM Hepes-NaOH (pH 7.5), 0.82 mM MgSO4×7H2O, 0.34 mM Ca(NO3)2×4H2O, 0.41 mM CaCl2×2H2O, 100 U Penicillin/mL, 100 μg Streptomycin/mL, sterile filtered).\nCurrents were measured using a home-built amplifier in combination with a xy-recorder or were digitized using a MacLab/200 (AD Instruments) and stored on a computer. Xenopus oocytes were voltage clamped using the two-electrode voltage clamp technique (electrode resistance about 0.8 MΩ) at −80 mV. The medium contained 90 mM NaCl, 1 mM KCl, 1 mM MgCl2, 1 mM CaCl2, 10 mM Na-Hepes (pH 7.4) and 0.5% DMSO.\nGABA was applied for 20-50 seconds without or in combination with other drugs and a washout period of 4 minutes was allowed to ensure full recovery from desensitization, which was experimentally determined. The perfusion solution (6 mL/min) was applied through a glass capillary with an inner diameter of 1.35 mm, the mouth of which was placed about 0.4 mm from the surface of the oocyte. The rate of solution change under our conditions has been estimated 70% within less than 0.5 s (Sigel et al., 1990; Neuron 5, 703-711). The entire perfusion system and the assay chamber were cleaned between drug applications by washing with DMSO.\nData is given as mean±SD, except in the figures where data is shown for clarity as mean±SEM. Current stimulation was calculated as follows: stimulation (%)=((I(GABA+modulator)−I(GABA))/I(GABA))×100%, where I is the current amplitude. Where indicated, the stimulation was standardized to the stimulation by 1 μM diazepam (100%). To obtain FIGS. 1-4, values for current stimulation obtained at a given concentration of modulator at a given subunit combination were averaged. The data points were fitted with the equation stimulation=efficacy/(1+(potency/concentration of modulator)). The values given in the Tables (Summary) are obtained by fitting individual curves and subsequently averaging efficacy and potency. […]\nGABA was then applied in combination with various concentrations of the compound of formula (II) between 0.3 nM and 3,000 nM to produce a cumulative concentration response curve. […] In each batch of oocytes the stimulation by 1 μM diazepam was determined in five oocytes, extent of stimulation averaged and defined as 100%. Where indicated, stimulation by the compound of formula (II) in each batch of oocytes was expressed as a percentage of this value in the corresponding batch. […]"}, "[2]": {"experiment": "Example 2: single and repeat dose pharmacokinetic, safety and pharmacodynamic study", "format": "in vivo, human", "conditions": "healthy volunteers, oral", "protocol": "A single and repeat dose pharmacokinetic safety and pharmacodynamic study of the effects of the compound of formula (II) was conducted using healthy volunteers. The compound of formula (II) in free base form was administered orally in 1 mg, 1.5 mg, 2 mg and 2.5 mg doses via a hard gelatine capsule containing the compound in powder form."}}, "note": "Entries after “also recorded” stand apart in the source; their conditions may differ."}
{"smiles": "CN(C)Cc1nc(-c2ncn3c2CN(C)C(=O)c2c(Cl)cccc2-3)no1", "note": "[compound of formula (II), 7-chloro-3-(5-dimethylaminomethyl-[1,2,4]oxadiazol-3-yl)-5-methyl-4,5-dihydro-imidazo[1,5-a][1,4]benzodiazepine-6-one]", "values": [{"measurement": "Intrinsic activity / type of allosteric modulation", "setting": "[1]; GABAA receptor benzodiazepine site", "value": "partial agonist; also recorded: partial positive allosteric modulator"}, {"measurement": "Receptor subtype preference in comparison to α5β2γ2, α3β2γ2 and α2β2γ2", "setting": "[1]; concentrations <100 nM", "value": "preference for α1β2γ2 GABAA receptors"}, {"measurement": "effect of food on the extent of absorption", "setting": "[2]", "value": "little or no effect"}, {"measurement": "pharmacokinetic profile on day 14 after repeat dosing compared to day 1", "setting": "[2]", "value": "no significant differences"}]}
